Measurements: patent US20250129088A1, “CEREBLON E3 UBIQUITIN LIGASE INHIBITOR” (Gan & Lee Pharmaceuticals Co., Ltd., priority 2022, published 2025)
pIC50: −log10 of the molar value.

Assays:
Format in all cases: cell-based
[1] = tested on: 22RV1 cells; assay: 22RV1 cell proliferation inhibition, CCK-8; settings: 22RV1, 7 days
Protocol: The complete medium required for 22RV1 cells is RPM11640 (ATCC, Product number: 30-2001) basal medium containing 10% fetal bovine serum. 22RV1 cells were seeded in a 96-well plate at a density of 4,000 cells/well, and the next day, different concentrations of the compound of the present invention and the positive control sample JQ1 (source: Bide Pharmaceuticals) were prepared to treat the cells, and the cells were cultured at 37° C. and 5% CO2 for 7 days in the incubator. Cell viability was detected using the CCK-8 kit (Beyotime, Product number: C0040) according to the manufacturer's instructions. According to the inhibition rate, the GraphPad Prism software was used to calculate the IC50 value of each compound for 7 days, and the results are shown in Table 4.

[2] = tested on: MV-4-11 cells; assay: MV-4-11 cell proliferation inhibition, CCK-8; settings: Homo sapiens, MV4-11, 96 h, MV-4-11, 4 days, Table 8, positive control Ibrutinib
Protocol: The complete medium required for MV-4-11 cells is IMDM (ATCC, Product number: 30-2005) basal medium containing 10% fetal bovine serum. MV-4-11 cells were seeded in a 96-well plate at a density of 7,500 cells/well, and different concentrations of the compound of the present invention and positive control samples Alisertib (source: Bide Pharmaceuticals), Palbociclib (source: Bide Pharmaceuticals), Ibrutinib (source Bide Pharmaceuticals) treated cells. The cells were incubated in a 37° C., 5% CO2 cell incubator for 4 days. Cell viability was detected using the CCK-8 kit (Beyotime, Product number: C0040) according to the manufacturer's instructions. According to the inhibition rate, GraphPad Prism software was used to calculate the IC50 value of each compound for 4 days, and the results are shown in Table 6-8.

[3] = tested on: MCF-7 cells; assay: MCF-7 cell proliferation inhibition, CCK-8; settings: Homo sapiens, MCF7, 216 h, MCF-7, 9 days
Protocol: The complete medium required for MCF-7 cells is DMEM (gibco, Product number: 11995-065) basal medium containing 10% fetal bovine serum. MCF-7 cells were seeded in a 96-well plate at a density of 800/well, and different concentrations of the compound of the present invention and the positive control sample ARV-471 (source: Enochem) were prepared to treat the cells. The cells were incubated at 37° C., 5% 9 days in a CO2 cell incubator. Cell viability was detected using the CCK-8 kit (Beyotime, Product number: C0040) according to the manufacturer's instructions. According to the inhibition rate, GraphPadPrism software was used to calculate the IC50 value of each compound for 9 days, and the results are shown in Table 18.

[4] = tested on: T-47D cells; assay: T-47D cell proliferation inhibition, CCK-8; settings: Homo sapiens, T47D, 144 h, 6 days
Protocol: The complete medium required for T-47D cells is 1640 (ATCC, Product number: A10491-01) basal medium containing 10% fetal bovine serum. T-47D cells were seeded in a 96-well plate at a density of 3,000/well, and different concentrations of the compound of the present invention and the positive control sample ARV-471 (source: Innochem) were prepared to treat the cells. The cells were incubated at 37° C., 5% for 6 days in a CO2 cell incubator. Cell viability was detected using the CCK-8 kit (Beyotime, Product number: C0040) according to the manufacturer's instructions. According to the inhibition rate, the GraphPadPrism software was used to calculate the IC50 value of each compound for 6 days, and the results are shown in Table 17.

[5] = tested on: Z138 cells; assay: Z138 cell proliferation inhibition, CCK-8; settings: Homo sapiens, Z-138, 96 h, Z138, 4 days
Protocol: The complete medium required for Z138 cells is IMDM (ATCC, Product number: 30-2005) basal medium containing 10% horse serum. Z138 cells were seeded in a 96-well plate at a density of 10,000 cells/well, and different concentrations of the compound of the present invention and a positive control sample Ibrutinib (source: Bide Pharmaceuticals) were prepared to treat the cells. The cells were incubated in a 37° C., 5% CO2 cell incubator for 4 days. Cell viability was detected using the CCK-8 kit (Beyotime, Product number: C0040) according to the manufacturer's instructions. According to the inhibition rate, the GraphPad Prism software was used to calculate the IC50 value of each compound for 4 days, and the results are shown in Table 14.

Row | SMILES | pIC50 ([1]; Homo sapiens, 168 h) | pIC50 [2] | pIC50 [3] | pIC50 [4] | other results
1 | Cc1sc2c(c1C)C(c1ccc(Cl)cc1)=N[C@@H](CC(=O)N1CCC3(CCc4cc5c(cc4O3)CN(C3CCC(=O)NC3=O)C5=O)CC1)c1nnc(C)n1-2 (stereo partly drawn) [PROTAC 47, 3-(1-(2-((S)-4-(4-chlorophenyl)-2,3,9-trimethyl-6H-thieno[3,2-f][1,2,4]triazolo[4,3-a][1,4]diazepine-6-yl)acetyl)-6′-oxo-3′,4′,6′,8′-tetrahydro-7′H-spiro[piperidine-4,2′-pyrano[2,3-f]isoindole]-7′-yl)piperidine-2,6-dione] | 6.99 | 7.77 | – | – | –
2 | Cc1sc2c(c1C)C(c1ccc(Cl)cc1)=N[C@@H](CC(=O)OC(C)(C)C)c1nnc(C)n1-2 [JQ1, reference compound] | – | – | – | – | pIC50 [1]: 7.36
3 | Cc1sc2c(c1C)C(c1ccc(Cl)cc1)=N[C@@H](CC(=O)N1CC3(CCc4cc5c(cc4O3)C(=O)N(C3CCC(=O)NC3=O)C5=O)C1)c1nnc(C)n1-2 (stereo partly drawn) [PROTAC 51, 1-(2-((S)-4-(4-chlorophenyl)-2,3,9-trimethyl-6H-thieno[3,2-f][1,2,4]triazole[4,3-a][1,4]diazepine-6-yl)acetyl)-7′-(2,6-dioxopiperidin-3-yl)-3′,4′-dihydro-6′H-spiro[azetidine-3,2′-pyrano[2,3-f]isoindole]-6′,8′(7′H)-dione] | 6.91 | 7.70 | – | – | –
4 | Cc1sc2c(c1C)C(c1ccc(Cl)cc1)=N[C@@H](CC(=O)N1CCC3(CCc4cc5c(cc4O3)C(=O)N(C3CCC(=O)NC3=O)C5=O)CC1)c1nnc(C)n1-2 (stereo partly drawn) [PROTAC 50, 1-(2-((S)-4-(4-chlorophenyl)-2,3,9-trimethyl-6H-thieno[3,2-f][1,2,4]triazole[4,3-a][1,4]diazepine-6-yl)acetyl)-7′-(2,6-dioxopiperidin-3-yl)-3′,4′-dihydro-6′H-spiro[piperidine-4,2′-pyrano[2,3-f]isoindole]-6′,8′(7′H)-dione] | 7.82 | 8.16 | – | – | –
5 | Cc1sc2c(c1C)C(c1ccc(Cl)cc1)=N[C@@H](CC(=O)N1CCC3(CC1)COc1cc4c(cc1O3)CN(C1CCC(=O)NC1=O)C4=O)c1nnc(C)n1-2 (stereo partly drawn) [PROTAC 49, 3-(1-(2-((S)-4-(4-chlorophenyl)-2,3,9-trimethyl-6H-thieno[3,2-f][1,2,4]triazolo[4,3-a][1,4]diazepine-6-yl)acetyl)-6′-oxo-6′,8′-dihydro-3′H,7′H-spiro[piperidin-4,2′-[1,4]dioxino[2,3-f]isoindole]-7′-yl)piperidine-2,6-dione] | 6.85 | 8.09 | – | – | –
6 | Cc1sc2c(c1C)C(c1ccc(Cl)cc1)=N[C@@H](CC(=O)N1CC3(CCc4cc5c(cc4O3)CN(C3CCC(=O)NC3=O)C5=O)C1)c1nnc(C)n1-2 (stereo partly drawn) [PROTAC 46, 3-(1-(2-((S)-4-(4-chlorophenyl)-2,3,9-trimethyl-6H-thieno[3,2-f][1,2,4]triazolo[4,3-a][1,4]diazepine-6-yl)acetyl)-6′-oxo-3′,4′,6′,8′-tetrahydro-7′H-spiro[azetidine-3,2′-pyrano[2,3-f]isoindole]-7′-yl)piperidine-2,6-dione] | 6.65 | 8.27 | – | – | –
7 | O=C1CCC(N2Cc3cc4c(cc3C2=O)OCC2(CCN(C3CC5(CCN(c6ccc([C@@H]7c8ccc(O)cc8CC[C@@H]7c7ccccc7)cc6)CC5)C3)CC2)O4)C(=O)N1 (stereo partly drawn) [PROTAC 58, 3-(1-(7-(4-((1R,2S)-6-hydroxy-2-phenyl-1,2,3,4-tetrahydronaphthalen-1-yl)phenyl)-7-azaspiro [3.5]non-2-yl)-6′-oxo-6′,8′-dihydro-3′H,7′H-spiro[piperidine-4,2′-[1,4]dioxino[2,3-f]isoindol]-7′-yl)piperidine-2,6-dione] | – | – | 7.70 | 9.00 | –
8 | O=C1CCC(N2Cc3cc4c(cc3C2=O)CCC2(CCN(C3CC5(CCN(c6ccc([C@@H]7c8ccc(O)cc8CC[C@@H]7c7ccccc7)cc6)CC5)C3)CC2)O4)C(=O)N1 (stereo partly drawn) [PROTAC 57, 3-(1-(7-(4-((1R,2S)-6-hydroxy-2-phenyl-1,2,3,4-tetrahydronaphthalen-1-yl)phenyl)-7-nitrogenheterospiro[3.5]non-2-yl)-6′-oxo-3′,4′,6′,8′-tetrahydro-7′H-spiro[piperidin-4,2′-pyrano [2,3-f]isoindole]-7′-yl)piperidine-2,6-dione] | – | – | 8.00 | 8.70 | –
9 | O=C1CCC(N2Cc3cc4c(cc3C2=O)CCC2(CN(C3CCC5(CC3)CCN(c3ccc([C@@H]6c7ccc(O)cc7CC[C@@H]6c6ccccc6)cc3)CC5)C2)O4)C(=O)N1 (stereo partly drawn) [PROTAC 52, 3-(1-(3-(4-((1R,2S)-6-hydroxy-2-phenyl-1,2,3,4-tetrahydronaphthalen-1-yl)phenyl)-3-azaspiro [5.5]undec-9-yl)-6′-oxo-3′,4′,6′,8′-tetrahydro-7′H-spiro[azetidine-3,2′-pyrano[2,3]isoindol]-7′-yl)piperidine-2,6-dione] | – | – | 7.52 | 8.04 | –
10 | C=CC(=O)N1CCC[C@@H](n2nc(-c3ccc(Oc4ccccc4)cc3)c3c(N)ncnc32)C1 [Ibrutinib, reference compound] | – | 7.11 | – | – | pIC50 [5]: 4.68
11 | Cc1sc2c(c1C)C(c1ccc(Cl)cc1)=N[C@@H](CC(=O)N1CCC3(CCc4cc5c(cc4O3)C(=O)N(C3CCC(=O)NC3=O)C5)CC1)c1nnc(C)n1-2 (stereo partly drawn) [PROTAC 48, 3-(1-(2-((S)-4-(4-chlorophenyl)-2,3,9-trimethyl-6H-thieno[3,2-f][1,2,4]triazolo[4,3-a][1,4]diazepine-6-yl)acetyl)-8′-oxo-3′,4′,6′,8′-tetrahydro-7′H-spiro[piperidine-4,2′-pyrano[2,3-f]isoindole]-7′-yl)piperidine-2,6-dione] | 7.62 | 9.02 | – | – | –
12 | O=C1CCC(N2Cc3cc4c(cc3C2=O)CCC2(CN(C3CC5(CCN(c6ccc([C@@H]7c8ccc(O)cc8CC[C@@H]7c7ccccc7)cc6)CC5)C3)C2)O4)C(=O)N1 (stereo partly drawn) [PROTAC 56, 3-(1-(7-(4-((1R,2S)-6-hydroxy-2-phenyl-1,2,3,4-tetrahydronaphthalen-1-yl)phenyl)-7-azaspiro[3.5]non-2-yl)-6′-oxo-3′,4′,6′,8′-tetrahydro-7′H-spiro[azetidine-3,2′-pyrano[2,3-f]isoindol]-7′-yl)piperidine-2,6-dione] | – | – | 7.15 | 8.80 | –
13 | Nc1ncnc2c1c(-c1ccc(Oc3ccccc3)cc1)nn2[C@@H]1CCCN(CCOCCC(=O)N2CCC3(CC2)COc2cc4c(cc2C3)C(=O)N(C2CCC(=O)NC2=O)C4=O)C1 (stereo partly drawn) [PROTAC 34, 1-(3-(2-((R)-3-(4-amino-3-(4-phenoxyphenyl)-1H-pyrazolo[3,4-d]pyrimidin-1-yl)piperidin-1-yl)ethoxy)propionyl)-7′-(2,6-dioxopiperidin-3-yl)-2′H-spiro[piperidine-4,3′-pyrano[2,3-f]isoindole]-6′,8′(4′H,7′H)-dione] | – | – | – | – | pIC50 [5]: 4.86
14 | O=C1CCC(N2Cc3cc4c(cc3C2=O)OC2(CC4)CN(C3CCC4(CC3)CN(c3ccc([C@@H]5c6ccc(O)cc6CC[C@@H]5c5ccccc5)cc3)C4)C2)C(=O)N1 (stereo partly drawn) [PROTAC 53, 3-(1-(2-(4-((1R,2S)-6-hydroxy-2-phenyl-1,2,3,4-tetrahydronaphthalen-1-yl)phenyl)-2-azaspiro [3.5]non-7-yl)-8′-oxo-3′,4′,6′,8′-tetrahydro-7′H-spiro[azetidine-3,2′-pyrano[2,3]isoindol]-7′-yl]piperidine-2,6-dione] | – | – | 7.05 | 8.54 | –
